Legend:
[1] = test system: Gastric lesions induced by 80% ethanol; assay: Gastric lesions induced by ethanol (ulcer index by severity scores); format: in vivo, Albino Wistar rats; conditions: Rattus norvegicus, po, vs 80% EtOH group, read-out: Gastric lesions induced by 80% ethanol, % change; for inhibition in vivo at 25 mg/kg: compound 25 mg/kg; for inhibition in vivo at 50 mg/kg: compound 50 mg/kg; for inhibition in vivo at 12.5 mg/kg: compound 12.5 mg/kg
Method: Albino Wistar rats of either sex, approximately the same age, weighing 150 to 200 g and fed on a diet of standard chow were used in this study. They were randomly divided into experimental groups of six rats each. Compounds (N-1 to N-18) 12.5, 25, and 50 mg/kg were given orally in the anti-ulcer studies and intraperitoneally for gastric secretion evaluation. The rats were sacrificed, and the stomachs removed and opened along the greater curvature, After washing with saline, the gastric lesions were quantified by a person unaware of the treatments. The animal study protocol was approved by the Research and Ethics Committee of the Experimental Animal Care Society, College of Pharmacy, King Saud University, Riyadh, Saudi Arabia.
Gastric lesions induced by ethanol: Albino rats of either sex weighing between (150-200 g) are divided into groups. The animals were fasted for 24 hours with free access to water. Animals were given test drugs or standard drug. One hour later 1 mL/200 gm of 80% ethanol is administered orally to each animal. The animals were anaesthetized 1 hour latter with anesthetic ether and stomach was incised along the greater curvature and ulceration was scored. The number of ulcers and the length of each ulcer were measured. Ulcer index was calculated using severity scores. The mucosal damage was examined by means of a magnifying glass. For each stomach the mucosal damage was assessed according to the following scoring system: 0.5 redness; 1.0 spot ulcers; 1.5 hemorrhagic streaks; 2.0 ulcers<3, but≦5; 3.0 ulcers>5. Table 1 provides the effect of compounds on gastric lesions induced by 80% ethanol (mean±SE).

| Compound | inhibition in vivo at 25 mg/kg [1] [%] | melting point [°C] | inhibition in vivo at 50 mg/kg [1] [%] | inhibition in vivo at 12.5 mg/kg [1] [%] |
| --- | --- | --- | --- | --- |
| O=C1NC=C(C(=O)c2ccc(N3CCCCC3)cc2)C(c2ccc(O)cc2)N1 (centres unmarked) [Compound N-9, 4-(4-Hydroxyphenyl)-5-[4-(piperidin-1-yl)benzoyl]-3,4-dihydropyrimidin-2(1H)-one] | 2 | 210 to 212 | – | – |
| O=C1NC=C(C(=O)c2ccc(N3CCCCC3)cc2)C(c2ccc(Cl)cc2Cl)N1 (centres unmarked) [Compound N-6, 4-(2,4-Dichlorophenyl)-5-[4-(piperidin-1-yl)benzoyl]-3,4-dihydropyrimidin-2(1H)-one] | 7.1 | 195 to 197 | 10.7 | – |
| COc1ccc(C2NC(=O)NC=C2C(=O)c2ccc(N3CCCCC3)cc2)c(OC)c1 (centres unmarked) [Compound N-18, 4-(2,4-Dimethoxyphenyl)-5-[4-(piperidin-1-yl)benzoyl]-3,4-dihydropyrimiden-2(1H)-one] | 16.1 | 135 to 137 | 22.5 | 6.4 |
| CCOc1ccc(C2NC(=O)NC=C2C(=O)c2ccc(N3CCCCC3)cc2)cc1 (centres unmarked) [Compound N-13, 4-(4-Ethoxyphenyl)-5-[4-(piperidin-1-yl)benzoyl]-3,4-dihydropyrimidin-2(1H)-one] | 7.1 | 200 to 202 | 14.2 | – |
| COc1ccc(C2NC(=O)NC=C2C(=O)c2ccc(N3CCCCC3)cc2)cc1OC (centres unmarked) [Compound N-7, 4-(3,4-Dimethoxyphenyl)-5-[4-(piperidin-1-yl)benzoyl]-3,4-dihydropyrimidin-2(1H)-one] | 26.6 | 145 to 147 | 33.3 | 10 |
| O=C1NC=C(C(=O)c2ccc(N3CCCCC3)cc2)C(c2ccccc2)N1 (centres unmarked) [Compound N-1, 4-Phenyl-5-[4-(piperidin-1-yl)benzoyl]-3,4-dihydropyrimidin-2(1H)-one] | – | 220 to 222 | – | – |
| O=C1NC=C(C(=O)c2ccc(N3CCCCC3)cc2)C(c2ccc(Cl)cc2)N1 (centres unmarked) [Compound N-5, 4-(4-Chlorophenyl)-5-[4-(piperidin-1-yl)benzoyl]-3,4-dihydropyrimidin-2(1H)-one] | 7.1 | 230 to 232 | 10.7 | – |
| O=C1NC=C(C(=O)c2ccc(N3CCCCC3)cc2)C(c2cccc([N+](=O)[O-])c2)N1 (centres unmarked) [Compound N-4, 4-(3-Nitrophenyl)-5-[4-(piperidin-1-yl)benzoyl]-3,4-dihydropyrimidin-2(1H)-one] | – | 185 to 187 | 7.4 | – |
| O=C1NC=C(C(=O)c2ccc(N3CCCCC3)cc2)C(c2cccc(O)c2)N1 (centres unmarked) [Compound N-10, 4-(3-Hydroxyphenyl)-5-[4-(piperidin-1-yl)benzoyl]-3,4-dihydropyrimidin-2(1H)-one] | 17.8 | 190 to 192 | 21.4 | 14 |
| COc1cccc(C2NC(=O)NC=C2C(=O)c2ccc(N3CCCCC3)cc2)c1 (centres unmarked) [Compound N-12, 4-(3-Methoxyphenyl)-5-[4-(piperidin-1-yl)benzoyl]-3,4-dihydropyrimidin-2(1H)-one] | 7.1 | 160 to 162 | 10.7 | – |
| COc1cc(OC)c(C2NC(=O)NC=C2C(=O)c2ccc(N3CCCCC3)cc2)c(OC)c1 (centres unmarked) [Compound N-17, 4-(2,4,6-Trimethoxyphenyl)-5-[4-(piperidin-1-yl)benzoyl]-3,4-dihydropyrimidin-2(1H)-one] | 27.5 | 140 to 142 | 37.9 | – |
| COc1cc(C2NC(=O)NC=C2C(=O)c2ccc(N3CCCCC3)cc2)cc(OC)c1OC (centres unmarked) [Compound N-16, 4-(3,4,5-Trimethoxyphenyl)-5-[4-(piperidin-1-yl)benzoyl]-3,4-dihydropyrimidin-2(1H)-one] | 17.8 | 135 to 137 | 21.4 | 7.1 |
| O=C1NC=C(C(=O)c2ccc(N3CCCCC3)cc2)C(c2ccccc2[N+](=O)[O-])N1 (centres unmarked) [Compound N-2, 4-(2-Nitrophenyl)-5-[4-(piperidin-1-yl)benzoyl]-3,4-dihydropyrimidine-2(1H)-one] | 21.4 | 190 to 192 | 28.5 | 14.2 |
| COc1cc(OC)c(C2NC(=O)NC=C2C(=O)c2ccc(N3CCCCC3)cc2)cc1OC (centres unmarked) [Compound N-14, 4-(2,4,5-Trimethoxyphenyl)-5-[4-(piperidin-1-yl)benzoyl]-3,4-dihydropyrimiden-2(1H)-one] | 27.5 | 155 to 157 | 37.9 | 10.3 |
